According to US20130261077A1 (priority 2012, published 2013):

Biological target: T1, FimH-CRD (Escherichia coli, UniProt P08191)
T1 construct: The first 177 amino acids of the FimH protein; thrombin tag (printed as 'fusion protein with thrombin') (cleaved yes); made in house; host or cells: bacteria (pET21b plasmid)
Test: Competitive binding assay by fluorescence polarization, assay 2 (compounds prepared by robotics, plates frozen and thawed)
Method in brief: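 Fluorescence-polarization competition of 5 nM Alexa 647 mannoside probe with 60 nM FimH-CRD (first 177 residues, tag removed) in Tris-Cl pH 7.0, NaCl, EDTA, β-ME, BSA, 2.5% DMSO, 5 h at RT in the dark. Twelve-point 3-fold titrations (0.4 nM–75 μM) in duplicate; Kd interpolated from displacement curves.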

T1 sequence (P08191 22-177): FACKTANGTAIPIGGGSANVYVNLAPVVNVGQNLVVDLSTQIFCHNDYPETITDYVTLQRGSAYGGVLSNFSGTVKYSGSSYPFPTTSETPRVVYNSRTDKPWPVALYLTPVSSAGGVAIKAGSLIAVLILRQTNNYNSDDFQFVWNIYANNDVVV

Compound	Kd
CNC(=O)c1cccc(Cc2cccc([C@H]3O[C@H](CO)[C@@H](O)[C@H](O)[C@@H]3O)c2)c1 [Compound 157, N-methyl-3-[[3-[(2R,3S,4R,5S,6R)-3,4,5-trihydroxy-6-(hydroxymethyl)tetrahydropyran-2-yl]phenyl]methyl]benzamide]	34.3 ± 8.1 nM
CNC(=O)c1cccc(-c2ccc(-c3ccc([C@H]4O[C@H](CO)[C@@H](O)[C@H](O)[C@@H]4O)cc3)c(C)c2)c1 [Compound 158, N-methyl-3-[3-methyl-4-[4-[(2R,3S,4R,5S,6R)-3,4,5-trihydroxy-6-(hydroxymethyl)tetrahydropyran-2-yl]phenyl]phenyl]benzamide]	20.5 ± 4.3 nM
CNC(=O)c1cccc(-c2ccc(-c3cccc([C@H]4O[C@H](CO)[C@@H](O)[C@H](O)[C@@H]4O)c3)c(C)c2)c1 [Compound 159, N,3′-dimethyl-3″-((2R,3S,4R,5S,6R)-3,4,5-trihydroxy-6-(hydroxymethyl)tetrahydro-2H-pyran-2-yl)-[1,1′:4′,1″-terphenyl]-3-carboxamide]	15.6 ± 3.4 nM
Cc1nnc(-c2ccc3cc(-c4cccc([C@H]5O[C@H](CO)[C@@H](O)[C@H](O)[C@@H]5O)c4)ccc3c2)o1 [Compound 161, (2R,3S,4R,5S,6R)-2-(hydroxymethyl)-6-[3-[6-(5-methyl-1,3,4-oxadiazol-2-yl)-2-naphthyl]phenyl]tetrahydropyran-3,4,5-triol]	6.6 ± 1.2 nM
OC[C@H]1O[C@H](c2cccc(-c3nc4c(Cl)cc(Cl)cc4[nH]3)c2)[C@@H](O)[C@@H](O)[C@@H]1O [Compound 162]	39.5 ± 11 nM
OC[C@H]1O[C@H](c2cccc(-c3nc4ccccc4[nH]3)c2)[C@@H](O)[C@@H](O)[C@@H]1O [Compound 163]	82.1 ± 0.6 nM
Cc1ccc2[nH]c(-c3cccc([C@H]4O[C@H](CO)[C@@H](O)[C@H](O)[C@@H]4O)c3)nc2c1 [Compound 164]	50.2 ± 14.1 nM
OC[C@H]1O[C@H](c2cccc(-c3nc4c(F)cc(F)cc4[nH]3)c2)[C@@H](O)[C@@H](O)[C@@H]1O [Compound 165]	28.9 ± 11.7 nM
OC[C@H]1O[C@H](c2cccc(-c3nc4cc(F)ccc4[nH]3)c2)[C@@H](O)[C@@H](O)[C@@H]1O [Compound 166]	44.1 ± 19.9 nM
N#Cc1ccc2[nH]c(-c3cccc([C@H]4O[C@H](CO)[C@@H](O)[C@H](O)[C@@H]4O)c3)nc2c1 [Compound 167]	32.1 ± 4.3 nM
O=C(c1ccccc1)c1ccc2[nH]c(-c3cccc([C@H]4O[C@H](CO)[C@@H](O)[C@H](O)[C@@H]4O)c3)nc2c1 [Compound 168]	42.5 ± 18.3 nM
CS(=O)(=O)c1ccc2[nH]c(-c3cccc([C@H]4O[C@H](CO)[C@@H](O)[C@H](O)[C@@H]4O)c3)nc2c1 [Compound 169]	25.7 ± 0.4 nM
OC[C@H]1O[C@H](c2cccc(-c3nc4cc(Cl)ccc4[nH]3)c2)[C@@H](O)[C@@H](O)[C@@H]1O [Compound 170]	32.4 ± 14.4 nM
OC[C@H]1O[C@H](c2cccc(-c3nc4c(C(F)(F)F)cccc4[nH]3)c2)[C@@H](O)[C@@H](O)[C@@H]1O [Compound 171]	32.1 ± 19.1 nM
CNC(=O)c1ccc2[nH]c(-c3cccc([C@H]4O[C@H](CO)[C@@H](O)[C@H](O)[C@@H]4O)c3)nc2c1 [Compound 172, N-methyl-2-(3-((2R,3S,4R,5S,6R)-3,4,5-trihydroxy-6-(hydroxymethyl)tetrahydro-2H-pyran-2-yl)phenyl)-1H-benzo[d]imidazole-5-carboxamide]	530 ± 714 nM
CNC(=O)c1cccc2[nH]c(-c3cccc([C@H]4O[C@H](CO)[C@@H](O)[C@H](O)[C@@H]4O)c3)nc12 [Compound 173, N-methyl-2-(3-((2R,3S,4R,5S,6R)-3,4,5-trihydroxy-6-(hydroxymethyl)tetrahydro-2H-pyran-2-yl)phenyl)-1H-benzo[d]imidazole-4-carboxamide]	54.6 ± 23 nM
OC[C@H]1O[C@H](c2cccc(-c3ccc(-c4cccnc4)cc3)c2)[C@@H](O)[C@@H](O)[C@@H]1O [Compound 174]	13.6 ± 3.4 nM
Cc1nc(-c2ccc(-c3cccc([C@H]4O[C@H](CO)[C@@H](O)[C@H](O)[C@@H]4O)c3)cc2)no1 [Compound 175]	10.2 ± 0.04 nM
